From patent US12145925B2, “Phthalazine derivatives as inhibitors of PARP1, PARP2, and/or tubulin useful for the treatment of cancer” (THE REGENTS OF THE UNIVERSITY OF CALIFORNIA, priority 2016, dated 2024)

Target: T1, PARP2 (Homo sapiens, UniProt Q9UGN5)
T1 construct: purchased BPS Bioscience 80552
Assay: PARP2 enzymatic activity inhibition (BPS Bioscience PARP2 Assay Kit)
Assay type: biochemical
Settings: incorporation of biotinylated poly(ADP-ribose) onto histone proteins
Protocol: The half maximal inhibitory concentration (IC50) with respect to PARP2 inhibition was determined for each test compound by using BPS Bioscience PARP2 Assay Kit, according to the manufacturer's protocol (Cat #80552, San Diego, CA). This assay measures the incorporation of biotinylated poly(ADP-ribose) onto histone proteins in a 96-well strip well format. This assay is ideal for the determination of IC50 values of known or suspected PARP inhibitors. Briefly, stock solutions of each test compound were prepared in DMSO. Histone strip wells were incubated for 30 minutes at room temperature with 50 μl/well of 1×PARP Buffer to rehydrate the histones. Serial dilutions of either test compound were added to appropriate wells. Diluted PARP enzyme (0.5 Unit/well) was then added to the wells containing compounds, and incubated for 10 minutes at room temperature. […] Three types of control wells were also analyzed; i. A negative control without PARP was prepared to determine background absorbance. ii. […] The reactions were then stopped by adding 50 μl per well of 0.2M HCl or 5% Phosphoric Acid and read the absorbance at 450 nm. The IC50 values were determined by performing non-linear regression analysis fitting velocities and the logarithm of inhibitor concentrations to a sigmoidal dose response with a variable slope model using the GraphPad Prism 6.0 software. […]

T1 sequence (Q9UGN5 whole entry): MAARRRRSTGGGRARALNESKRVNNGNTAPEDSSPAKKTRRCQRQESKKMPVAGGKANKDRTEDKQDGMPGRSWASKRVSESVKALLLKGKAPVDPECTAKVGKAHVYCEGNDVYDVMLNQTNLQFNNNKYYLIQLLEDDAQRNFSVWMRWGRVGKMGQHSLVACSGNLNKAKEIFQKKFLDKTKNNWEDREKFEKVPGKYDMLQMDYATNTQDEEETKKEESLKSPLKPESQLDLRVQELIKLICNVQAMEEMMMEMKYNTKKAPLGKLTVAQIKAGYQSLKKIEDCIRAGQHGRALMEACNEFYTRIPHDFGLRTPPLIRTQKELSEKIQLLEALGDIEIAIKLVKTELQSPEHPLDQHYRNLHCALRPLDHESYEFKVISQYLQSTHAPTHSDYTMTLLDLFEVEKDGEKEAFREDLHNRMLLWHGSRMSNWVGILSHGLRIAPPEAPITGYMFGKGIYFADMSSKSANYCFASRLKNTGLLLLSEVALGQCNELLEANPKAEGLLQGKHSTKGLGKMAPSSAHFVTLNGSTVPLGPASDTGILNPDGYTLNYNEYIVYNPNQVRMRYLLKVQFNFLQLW

- IC50: 0.05 nM
SMILES: COC(=O)Nc1nc2cc(-c3cc(Cc4n[nH]c(=O)c5ccccc45)ccc3F)ccc2[nH]1 [Ex 1.1, methyl (5-(2-fluoro-5-((4-oxo-3,4-dihydrophthalazin-1-yl)methyl)phenyl)-1H-benzimidazol-2-yl)carbamate]
